Test results taken from patent US20060281767A1, “Triazoloypyrimidines” (BAYER CROPSCIENCE AKTIENGESELLSCHAFT, priority 2003, published 2006).

tested on: Venturia inaequalis; experiment: Venturia test (apple)/protective; assay type: in vivo; conditions: protective spray, assessment 10 days after inoculation, 0% = control, 100% = no attack
Excerpt: Venturia Test (apple)/protective • Solvent: 24.5 parts by weight of acetone • 24.5 parts by weight of dimethylacetamide • Emulsifier: 1 part by weight of alkyl-aryl-polyglycolether One part by weight of active substance is mixed with the specified quantities of solvent and emulsifier and the concentrate diluted with water to the desired concentration to prepare a suitable active substance preparation. To test the protective efficiency, young plants are sprayed with the active substance preparation in the specified amount. After drying the spray coating, the plants are inoculated with an aqueous conodia suspension of the apple scab pathogen Venturia inaequalis and are then left for 1 day at about 20° C. and 100% relative humidity in an incubation cabinet. The plants are then placed in a greenhouse at about 21° C. and a relative humidity of about 90%. The assessment is made 10 days after the inoculation. In this situation 0% means an efficiency corresponding to that of the control whereas an efficiency of 100% means that no attack is observed.

Structure (SMILES)	efficiency [%]
CC(C)C(C)Sc1c(-c2ncncc2Cl)c(Cl)nc2ncnn12 (stereo not drawn) [Example 2]	> 90

tested on: not listed separately; experiment: LogP determination by HPLC (EEC-Directive 79/831 Annex V. A8); assay type: physicochemical; conditions: HPLC with acetonitrile/0.1% aqueous phosphoric acid gradient, gradient method

chromatographic logP	Structure (SMILES)
1.35	Clc1cncnc1Cl [Example 15, 4,5-dichloropyrimidine]
1.33	COC(=O)C(C(=O)OC)c1ncncc1Cl [Example 14, 2-(5-chloro-pyrimidin-4-yl)-malonic acid dimethylester]
0.1	Oc1nc2nc(C3CC3)nn2c(O)c1-c1scnc1Cl [Example 12, 2-cyclopropyl-6-(4-chloro-thiazol-5-yl)-[1,2,4]triazolo[1,5-a]pyrimidin-5,7-diol]
2.43	CC(Oc1c(-c2ncncc2Cl)c(Cl)nc2ncnn12)C(F)(F)F (stereo not drawn) [Example 1, 5-chloro-6-(5-chloro-pyrimidin4-yl)-7-(2,2,2-trifluoro-isopropoxy)[1,2,4]triazolo[1,5-a]pyrimidine]
-0.23	Oc1nc2ncnn2c(O)c1-c1ncccc1C(F)(F)F [Example 10, 6-(3-trifluoromethyl-pyridin-2-yl)-[1,2,4]triazolo[1,5-a]pyrimidin-5,7-diole]
-0.23	Oc1nc2ncnn2c(O)c1-c1ncncc1Cl [Example 11, 6-(5-chloro-4-pyrimidinyl)[1,2,4]triazolo[1,5-a]pyrimidin-5,7-diole]
3.07	CC(C)C(C)Sc1c(-c2ncncc2Cl)c(Cl)nc2ncnn12 (stereo not drawn) [Example 2]
1.43	Clc1cncnc1-c1c(Cl)nc2ncnn2c1Cl [Example 6, 5,7-dichloro-6-(5-chloro-4-pyrimidinyl)[1,2,4]triazolo[1,5-a]pyrimidine]
2.05	COC(=O)C(C(=O)OC)c1ncccc1C(F)(F)F [Example 13, 2-[(3-trifluoromethyl)-pyridin-2-yl]-malonic acid dimethylester]
1.97	FC(F)(F)c1cccnc1-c1c(Cl)nc2ncnn2c1Cl [Example 5, 5,7-dichloro-6-(3-trifluoromethyl-pyridin-2-yl)-[1,2,4]triazolo[1,5-a]pyrimidine]
2.46	Clc1ncsc1-c1c(Cl)nc2nc(C3CC3)nn2c1Cl [Example 9, 5,7-dichloro-2-cyclopropyl-6-(4-chloro-thiazol-5-yl)-[1,2,4]-triazolo[1,5-a]pyrimidine]
